Laboratory results from PMC10999543, “Identification of kinase modulators as host-directed therapeutics against intracellular methicillin-resistant Staphylococcus aureus” (Frontiers in Cellular and Infection Microbiology, 2024).
Like-named read-outs stand apart in the source and are kept apart here.

What was measured:
intracellular MRSA = type: cell-based, Staphylococcus aureus; conditions: for %GFP+ rep 1 / z-scoreMRSA+ rep 1: replicate 1; for %GFP+ rep 2 / z-scoreMRSA+ rep 2: replicate 2; for %GFP+ rep 3 / z-scoreMRSA+ rep 3: replicate 3; for z-scoreMRSA+ mean: mean of 3 replicates
How it was run: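 HeLa cells infected with GFP-MRSA (MOI ~6.8), gentamicin-cleared, then incubated overnight at 37°C with inhibitors plus 5 µg/ml gentamicin; DMSO as negative control, triplicates. Flow cytometry gave % GFP-positive cells and cell count (viability surrogate); hits by plate z-score (MRSA ≤ -2, HeLa count ≥ -3).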

HeLa cells = test: Compound screen by flow cytometry: HeLa cell count as surrogate readout of cell viability (z-scoreHeLa); type: cell-based, human
How it was run: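 HeLa cells were infected with GFP-MRSA (mean MOI 6.8 ± 4.6) for 1 h, and extracellular bacteria were killed with 30 µg/ml gentamicin. Cells were then incubated overnight with kinase inhibitors in 5 µg/ml gentamicin, in triplicate against DMSO controls. Flow-cytometric cell count served as a viability surrogate, expressed as a plate z-score.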

[1] = PKIS compounds raw data, MRSA-infected HeLa cells
[2] = Yes/No: effect without cell death
[3] = compound screen, MRSA-infected HeLa cells
[4] = PKIS compounds raw data, replicate 1, HeLa cell count
[5] = PKIS compounds raw data, replicate 2, HeLa cell count
[6] = PKIS compounds raw data, replicate 3, HeLa cell count
[7] = compound screen, HeLa cell count, mean of 3 replicates
[8] = compound screen, HeLa cell count, replicate 1
[9] = compound screen, HeLa cell count, replicate 2
[10] = compound screen, HeLa cell count, replicate 3
[11] = PKIS compound screen raw data, MRSA-infected HeLa cells
[12] = PKIS compound screen, MRSA-infected HeLa cells
[13] = PKIS compound screen, Yes/No call (effect without cell death)
[14] = PKIS compound screen raw data, HeLa cell count, replicate 1
[15] = PKIS compound screen raw data, HeLa cell count, replicate 2
[16] = PKIS compound screen raw data, HeLa cell count, replicate 3
[17] = PKIS compound screen, Yes/No call
[18] = PKIS compound screen, mean of 3 replicates
[19] = PKIS compound screen, replicate 1
[20] = PKIS compound screen, replicate 2
[21] = PKIS compound screen, replicate 3

Compound	%GFP+ rep 1 (intracellular MRSA; [1]) [%]	%GFP+ rep 2 (intracellular MRSA; [1]) [%]	%GFP+ rep 3 (intracellular MRSA; [1]) [%]	effect (intracellular MRSA; Yes/No call from z-scoreMRSA+)	hit (intracellular MRSA; [2])	z-scoreMRSA+ mean (intracellular MRSA; [3])	z-scoreMRSA+ rep 1 (intracellular MRSA; [3])	z-scoreMRSA+ rep 2 (intracellular MRSA; [3])	z-scoreMRSA+ rep 3 (intracellular MRSA; [3])	cell count rep 1 (HeLa cells; [4])	cell count rep 2 (HeLa cells; [5])	cell count rep 3 (HeLa cells; [6])	cell death (HeLa cells; Yes/No call from z-scoreHeLa)	z-scoreHeLa mean (HeLa cells; [7])	z-scoreHeLa rep 1 (HeLa cells; [8])	z-scoreHeLa rep 2 (HeLa cells; [9])	%GFP+ rep 1 (intracellular MRSA; [11]) [%]	%GFP+ rep 2 (intracellular MRSA; [11]) [%]	%GFP+ rep 3 (intracellular MRSA; [11]) [%]	hit (intracellular MRSA; [13])	also measured
Cl.Cl.Cl.Fc1ccc(-c2ncn(C3CCNCC3)c2-c2ccnc(Nc3ccccc3)n2)cc1 [SB-238039-R]	7.4	6.7	6.5	Yes	Yes	-2.31	-1.86	-2.29	-2.78	1720	1088	3178	No	-2.33	-2.76	-2.40					z-scoreHeLa rep 3 (HeLa cells; [10]): -1.81
Fc1ccc(-c2ncn(C3CCNCC3)c2-c2ccnc(Oc3ccc(F)c(F)c3)n2)cc1 [SB-253228]																	13.5	14.9	15.9	No	z-scoreMRSA+ mean (intracellular MRSA; [12]): -1.22; z-scoreMRSA+ rep 1 (intracellular MRSA; [12]): -1.38; z-scoreMRSA+ rep 2 (intracellular MRSA; [12]): -1.09; z-scoreMRSA+ rep 3 (intracellular MRSA; [12]): -1.18; effect (intracellular MRSA; PKIS compound screen, Yes/No call on z-scoreMRSA+): No; cell count rep 1 (HeLa cells; [14]): 9973; cell count rep 2 (HeLa cells; [15]): 28239; cell count rep 3 (HeLa cells; [16]): 36229; z-scoreHeLa mean (HeLa cells; PKIS compound screen, HeLa cell count, mean of 3 replicates): -1.15; z-scoreHeLa rep 1 (HeLa cells; PKIS compound screen, HeLa cell count, replicate 1): -1.54; z-scoreHeLa rep 2 (HeLa cells; PKIS compound screen, HeLa cell count, replicate 2): -1.22; z-scoreHeLa rep 3 (HeLa cells; PKIS compound screen, HeLa cell count, replicate 3): -0.68; cell death (HeLa cells; PKIS compound screen, Yes/No call on z-scoreHeLa): No
CN1C(=O)C(Nc2ccccc2)=C(c2ccccc2)C1=O [SB-300079]	22.0	24.1	24.3							5536	7057	6914								No	effect (intracellular MRSA; [17]): No; z-scoreMRSA+ mean (intracellular MRSA; PKIS compound screen): -0.64; z-scoreMRSA+ rep 1 (intracellular MRSA; PKIS compound screen): -0.99; z-scoreMRSA+ rep 2 (intracellular MRSA; PKIS compound screen): -0.37; z-scoreMRSA+ rep 3 (intracellular MRSA; PKIS compound screen): -0.55; cell death (HeLa cells; [17]): No; z-scoreHeLa mean (HeLa cells; [18]): 0.41; z-scoreHeLa rep 1 (HeLa cells; [19]): -0.31; z-scoreHeLa rep 2 (HeLa cells; [20]): 0.70; z-scoreHeLa rep 3 (HeLa cells; [21]): 0.83
COc1cccc(C2=C(Nc3ccc(Cl)c(C(=O)O)c3)C(=O)NC2=O)c1 [SB-390769]	26.8	29.8	31.2							7373	8825	9583								No	effect (intracellular MRSA; [17]): No; z-scoreMRSA+ mean (intracellular MRSA; PKIS compound screen): 0.47; z-scoreMRSA+ rep 1 (intracellular MRSA; PKIS compound screen): -0.05; z-scoreMRSA+ rep 2 (intracellular MRSA; PKIS compound screen): 0.72; z-scoreMRSA+ rep 3 (intracellular MRSA; PKIS compound screen): 0.73; cell death (HeLa cells; [17]): No; z-scoreHeLa mean (HeLa cells; [18]): 1.73; z-scoreHeLa rep 1 (HeLa cells; [19]): 0.80; z-scoreHeLa rep 2 (HeLa cells; [20]): 1.87; z-scoreHeLa rep 3 (HeLa cells; [21]): 2.53
CCN(CC)CCOc1ccc(Nc2ncc3cc(-c4c(Cl)cccc4Cl)c(=O)n(C)c3n2)cc1 [SB-601273]				No	No	1.27	1.64	1.33	0.84								32.3	28.1	25.0		cell death (HeLa cells): No; cell count rep 1 (HeLa cells; human): 895; cell count rep 2 (HeLa cells; human): 949; cell count rep 3 (HeLa cells; human): 1208; z-scoreHeLa mean (HeLa cells; human): -2.54; z-scoreHeLa rep 1 (HeLa cells; human): -2.49; z-scoreHeLa rep 2 (HeLa cells; human): -2.58; z-scoreHeLa rep 3 (HeLa cells; human): -2.55
CN(C)CCOc1ccc(-c2cc(-c3ccc(Cl)c(O)c3)c(-c3ccncc3)[nH]2)cc1.Cl.Cl [SB-684387-B]				Yes	Yes	-3.01	-2.86	-2.84	-3.32				No	1.70	1.91	1.59	13.0	10.9	11.1		cell count rep 1 (HeLa cells; [14]): 7005; cell count rep 2 (HeLa cells; [15]): 6368; cell count rep 3 (HeLa cells; [16]): 7752; z-scoreHeLa rep 3 (HeLa cells; [10]): 1.59
